The source of these data is US7662361B2, “Methods and compositions for modulating drug activity through telomere damage” (priority 1999, dated 2010).

Common to all, as to format: cell-based, human
Test [1] concerns FaDu cells. The test is described as follows: Cell growth of hTR antisense transfected cells. As to conditions: stably transfected FaDu cells. The text has this:
Transfection procedures. Transfection of the antisense construct used an IPTG-inducible mammalian expression system, i.e., the LacSwitch II system (Stratagene), which consists of a recombinant vector (i.e., pOPRSVI) and an operator vector (i.e., pCMVLacI). The pOPRSVI vector contains both ampicillin and G418^r resistance genes which facilitate the selection of positive clones from E. Coli and eukaryotic cells. The 8 unique cloning sites of the vector facilitate bi-directional insertion of a cDNA to produce either sense or antisense transcripts. The Lac repressor vector (pCMVLacI) produces the Lac repressor protein, which binds to and inhibits the operator sequence in the pOPRSVI vector and thereby inhibits the expression of the inserted gene. IPTG decreases the binding affinity of the Lac repressor protein to the operator sequence and triggers transcription and expression of the inserted gene. The transfection procedures consisted of stable transfection of FaDu cells with first, the pCMVLacI vector, and then second, the pOPRSVI/MCS vector which contained an antisense or sense hTR fragment. Transfection was performed using Lipofectamine-mediated gene transfer. The selection of the clones expressing the pCMVLacI repressor construct was performed using […] of the antibiotic hygromycin. The selection of the clones expressing the pOPRSVI vector using G418. […]

In test [2] the test system is FaDu cells. The test is described as follows: TALA telomere length in hTR antisense transfected cells.
The subject of another test is telomerase (hTR). The test is described as follows: Improved TRAP telomerase activity in hTR antisense transfected cells. As to the method:
First, the extraction procedures in the conventional TRAP were not sufficient to completely lyse the cell nuclei and the extraction efficiency varied with the ratio between the volume of the extraction buffer and the volume of cells. […] For the preparation of cell and tissue extracts, cells and tissue were harvested, washed, and stored at −70° C. Cells were then lysed in a SDS-based lysis buffer (10 mM Tris.HCl, pH 7.5, 1 mM MgCl2, 1 mM EGTA, 0.1 mM phenylmethylsulfonyl fluoride, 5 mM β-mercaptoethanol, 0.1% CHAPS, and 10% glycerol), on ice for 10 min. To this mixture, three volumes of CHAPS-based buffer (10 mM Tris-HCl, pH 7.5, 1 mM MgCl2, 1 mM EGTA, 0.1 mM phenylmethylsulfonyl fluoride, 5 mM β-mercaptoethanol, 0.5% CHAPS, and 10% glycerol) were added and kept on ice for 5 min. SDS is a strong detergent which can completely lyse the cell including the nucleus. […] The protein concentration of the supernatant was determined using Bicinchoninic Acid Kit (Sigma, St Louis, Mo.). […] Samples with equal amounts of protein (1-2 μg) were analyzed by TRAP. In this assay, the enzyme activity is measured as the synthesis of repeating telomere hexamers (TTAGGG; SEQ ID NO: 10). […]

The test system of test [3] is telomerase activity of FaDu cells. The test is described as follows: TRAP telomerase activity in drug-treated cells. Particulars: cisplatin treatment, 48 to 96 hr.
Procedure: For the preparation of cell and tissue extracts, cells and tissue were harvested, washed, and stored at −70° C. Cells were then lysed in a SDS-based lysis buffer (10 mM Tris.HCl, pH 7.5, 1 mM MgCl2, 1 mM EGTA, 0.1 mM phenylmethylsulfonyl fluoride, 5 mM β-mercaptoethanol, 0.1% CHAPS, and 10% glycerol), on ice for 10 min. To this mixture, three volumes of CHAPS-based buffer (10 mM Tris-HCl, pH 7.5, 1 mM MgCl2, 1 mM EGTA, 0.1 mM phenylmethylsulfonyl fluoride, 5 mM β-mercaptoethanol, 0.5% CHAPS, and 10% glycerol) were added and kept on ice for 5 min. […] For the extraction of tissues, tissues were homogenized in SDS-based lysis buffer with a Kontes pellet pestle (Fisher, Pittsburgh, Pa.), mixed with three volumes of CHAPS-based buffer, and centrifuged were centrifuged at 8,000 g for 15 min at 4° C. The supernatant was kept at −20° C. The protein concentration of the supernatant was determined using Bicinchoninic Acid Kit (Sigma, St Louis, Mo.). The protein concentration was adjusted to 0.5 μg/μl with CHAPS-based buffer. Samples with equal amounts of protein (1-2 μg) were analyzed by TRAP. […] The TRAP reaction mixture contained 2-4 μl of protein extract, 20 mM Tris.HCl (pH 8.3), 1.5 mM MgCl2, 63 mM KCl, 0.005% Tween-20, 1 mM EGTA, 50 μM dNTPs, 0.1 μg of TS primer, 0.1 mg/ml bovine serum albumin. The mixture was incubated at 30° C. for 30 min, then at 90° C. for 2 min.
This was accomplished by using phenol/chloroform extraction of the cell lysate, as follows. One μg of tRNA and 0.1 ng internal control template were added to the reaction solution after primer extension. The total volume of the mixture was brought to 100 μl with water, mixed with an equal volume of buffer saturated phenol (Life Technology) and then centrifuged at 18,000 g for 3 min, at room temperature. The top aqueous layer (90 μl) was carefully transferred to a new tube and mixed with an equal volume of chloroform:isoamyl alcohol (24:1) solution and centrifuged at 18,000 g for 3 min, at room temperature. The top aqueous layer (80 μl) was again transferred to a new tube and the nucleotides were precipitated with 0.2 volume of 3 M sodium acetate (pH 5.3) and 3 volume of 100% ethanol at −70° C. for at least 2 hr. The mixture was centrifuged at 18,000 g for 15 min at 4° C. […]
The template for the internal standard was amplified by PCR and purified by spin columns (QIAquick PCR purification kit, Qiagen, Valencia, Calif.). The concentration was determined by a spectrophotometer.
PCR was performed on the GeneAmp PCR system 2400 (Perkin Elmer) and initiated by 1 cycle at 94° C. for 3 min, 50° C. for 4 min, and 68° C. for 2 min, then 25 rounds at 94° C. for 30 sec, 50° C. for 30 sec, and 68° C. for 90 sec, followed by 68° C. for 10 min. […] The gel was then dried and the amplification products were detected. […]
Test [4] relates to FaDu cells. The test is described as follows: Cell detachment from the growth surface.
Procedure: Upon drug treatment, the supernatant along with two subsequent Versene rinses, which contained the detached cells, were collected. […] These samples were centrifuged at 1500 rpm for 10 min and the resulting cell pellets were resuspended in 2 ml of culture media. The cell number in the detached and attached fractions were counted using a Coulter counter (Coulter Electronic, Inc., Hialeah, Fla.).
Treatment with the above agents was initiated after cells were allowed to attach to the growth surface in culture flasks. On the day of experiments, the culture medium was removed and replaced with drug-containing medium. […] For d4T, two concentrations, 20 μM and 40 μM were used.
Agent effect was measured in three ways, i.e., enumeration of the number of cells that remained attached in culture flask, enumeration of the number of cells that detached from the growth surface, and by measuring changes in apoptosis. […] The drug-induced detachment of cells from the growth surface was determined by counting the attached and detached cells.

Bounds are passed on as bounds.

Compound `CC(C)S[C@@H]1O[C@H](CO)[C@H](O)[C@H](O)[C@H]1O` [+IPTG] yielded a Doubling time with FaDu cells [1] of 23 h. Also, the Terminal restriction fragment with FaDu cells [2] is given as 2.91 kb. Further, in the test on telomerase (hTR), the telomerase activity is 98.9 % of control.
`N.N.[Cl][Pt][Cl]` [cisplatin]: the telomerase activity in test [3] is reported as 50 % of the baseline level.
On to `Cc1cn([C@H]2C=C[C@@H](CO)O2)c(=O)[nH]c1=O` [d4T, 3′-deoxy-2′,3′-didehydrothymidine], for which the “detachment of cells from the growth surface” value in the test with FaDu cells [4] (d4T 20 μM and 40 μM) was below 8%. The “effect of addition of d4T to paclitaxel on detached cell fraction” value with FaDu cells [4] (d4T 20 or 40 μM) is on record as “significantly enhanced the detached cell fraction”.
